In US20110143992A1, “Methods and Compositions Related to GHS-R Antagonists” (priority 2006, published 2011):
[ ]: non-standard residue; d: D form.

Columns and labels:
Primary human T cells = test: Transwell chemotaxis assay, SDF-1 induced migration of primary human T cells; assay type: cell-based; conditions: SDF-1 100 ng/ml, 2 h
Protocol: (§1) Chemotaxis Assay. Fluorescence-based Transwell chemotaxis assays were performed to assess cell migration. Primary human T cells, CEMR5 and HH cells were labeled with 10 μg/ml Hoechst 33342 (Molecular Probes) in cRPMI for 30 min at 37° C. The cells were then resuspended in RPMI with 1% FBS to a concentration of 1×10^7/ml and 100 ul of Hoechst labeled cells (10^6 cells) were added into the top chamber of the transwells. Cells were treated with DLG in the upper chamber and RPMI (0.6 ml) containing 1% FBS was added to the bottom wells of the 24-well plate with 100 ng/ml of SDF-1α. Transwell chambers with 5 μm pore filters (Corning CoStar, Acton, Mass.) were then placed into the wells. Cells (1×10^6 in 100 μl) were then added to the chambers. After 2 h, the migrated cells in the bottom wells were transferred to triplicate wells of a 96-well plate in 150 μl volumes. Hoechst fluorescence was measured on a Fluoroskan Ascent FL fluorescence plate reader (Thermo Labsystems, Franklin, Mass.) at λex=355 nm, and λem=460 nm. Results are expressed as migration index calculated by subtracting the fluorescence intensity of media alone and comparing the values to the fluorescence intensity (relative number) of cells migrated into the bottom chamber in media alone, which is normalized to a value of 1. Fluorescence values were within the linear range of a standard dilution curve.

CCR5 [1] = target: T1, CCR5 (Homo sapiens, UniProt P51681); test: MIP-1β induced calcium release in CEM-R5 cells (Fura-2AM); assay type: cell-based; design: ATCC; host or cells: CEM-R5 cells; conditions: CEMR5 cells, MIP-1β 100 ng/ml
[2] = obese mice, cited from earlier work
[3] = test system: CEMR5 human T cell lymphoma cell; test: Transwell chemotaxis assay, SDF-1 induced migration of CEMR5 cells; assay type: cell-based; conditions: SDF-1 100 ng/ml
Protocol: as §1

[4] = cited from earlier work
CCR7 = target: T2, CCR7 (Homo sapiens, UniProt P32248); test: MIP-3β induced calcium release in human T cells; assay type: cell-based
T2 construct: MIP-3β induced calcium release (A) and sphingosine 1 phosphate (B) is not affected by DLG treatment in human T cells; endogenous in cells; host or cells: human T cells
T2 sequence (P32248 25-378): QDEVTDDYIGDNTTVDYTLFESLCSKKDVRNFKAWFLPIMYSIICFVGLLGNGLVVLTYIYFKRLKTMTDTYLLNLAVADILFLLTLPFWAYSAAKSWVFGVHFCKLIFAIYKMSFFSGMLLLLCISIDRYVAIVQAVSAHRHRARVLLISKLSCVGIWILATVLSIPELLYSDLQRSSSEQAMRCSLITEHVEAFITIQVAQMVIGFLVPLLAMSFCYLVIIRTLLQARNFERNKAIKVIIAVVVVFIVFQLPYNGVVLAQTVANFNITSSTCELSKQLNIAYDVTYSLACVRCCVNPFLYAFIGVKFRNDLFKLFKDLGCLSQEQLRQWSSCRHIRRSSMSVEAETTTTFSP

CXCR4 [5] = target: T3, CXCR4 (Homo sapiens, UniProt P61073); test: SDF-1 induced intracellular calcium mobilization (Fura-2AM) in primary human T cells; assay type: cell-based; design: endogenous in cells; host or cells: primary human T cells purified from donor PBMCs
Protocol: Intracellular calcium mobilization. Measurement of intracellular calcium release in response to ghrelin and SDF-1 was performed as described previously (Dixit et al. J. Clin. Invest. 114, 57-66 (2004)). Cells were incubated in PBS containing […] Fura-2 acetoxymethyl ester (Molecular Probes) for 30 minutes at room temperature. The cells were subsequently washed and then resuspended at 1×10^6/ml in PBS. A total of 2 ml of the cell suspension was placed in a continuously stirring cuvette at room temperature in an LS50B spectrophotometer (Perkin-Elmer, Wellesley, Mass., USA). Labeled T cells were treated with SDF-1 (100 ng/ml) and along with DLG (Sigma-Aldrich) at various concentrations. Fluorescence was monitored at λex1=340 nm, λex2=380 nm, and λcm=510 nm. The data are presented as the relative ratio of fluorescence excited at 340 and 380 nm.

SW1008 astrocytoma cells = test: SDF-1 induced ERK phosphorylation, Western blot, SW1008 cells; assay type: cell-based, human; conditions: DLG pretreatment 30 min
Protocol: (§2) Western blot analysis. Control and treated cells were lysed in RIPA buffer supplemented with protease and phosphatase inhibitor cocktail (Sigma-Aldrich, St. Louis, Mo.) and protein concentrations of cell lysates were determined by Bradford assay. Protein lysates (30 μg) were diluted with sample buffer and separated on 4-20% Tris HCl SDS-polyacrylamide gels (Biorad, Hercules, Calif.) and electrophoretically transferred to nitrocellulose membranes (Schleicher & Schuell). The blots were then incubated with rabbit anti-phospho-P42 and pERK (Cell Signaling, Beverly, Mass.). Immune complexes were visualized by incubation with either an anti-rabbit or an anti-mouse HRP-conjugated secondary antibody (Amersham, Piscataway, N.J.). The immunoreactive band was visualized by enhanced chemiluminescence (Perkin-Elmer).

U118 astrocytoma cells = test: SDF-1 induced ERK phosphorylation, Western blot, U118 cells; assay type: cell-based, human; conditions: DLG pretreatment 30 min
Protocol: as §2

HIV1 (CXCR4, S1 strain) = test: HIV-1 infectivity of CEM-GFP indicator cells (GFP fluorescence); assay type: cell-based; conditions: 1 ug/ml pretreatment 30 min, 90 min viral incubation
Protocol: Neomycin-resistant indicator CEM-GFP cells were used to monitor the infections with HIV1 (CXCR4, S1 strain). Viral entry into CEM cells via CXCR4 results in generation of green fluorescent protein signal. CEM cells (1 million/ml) were pretreated with DLG (1 ug/ml) and SDF-1 (1 ug/ml) for 30 min followed by 90 min viral incubation.

EDG receptor = test: Sphingosine 1 phosphate induced calcium release in human T cells; assay type: cell-based
[6] = test system: breast and pancreatic carcinoma; conditions: cited from earlier work
glioma cell = conditions: cited from earlier work
HIV = conditions: cited from earlier work
primary brain tumors = conditions: via ERK dependent pathways; cited from earlier work
[7] = in vivo; cited from earlier work
CCR5 [8] = target: T1, CCR5; test: flow cytometry, whole cell ligand binding on T-SUP1 cells; competitor biotinylated MIP-1β + avidin-FITC; DLG 10^-2 M for 15 minutes by the legend of FIG. 5
CXCR4 [9] = target: T3, CXCR4; test: flow cytometry, whole cell ligand binding on T-SUP1 cells; competitor biotinylated SDF-1 + avidin-FITC; DLG 10^-2 M for 15 minutes by the legend of FIG. 5

T3 sequence (P61073 whole entry): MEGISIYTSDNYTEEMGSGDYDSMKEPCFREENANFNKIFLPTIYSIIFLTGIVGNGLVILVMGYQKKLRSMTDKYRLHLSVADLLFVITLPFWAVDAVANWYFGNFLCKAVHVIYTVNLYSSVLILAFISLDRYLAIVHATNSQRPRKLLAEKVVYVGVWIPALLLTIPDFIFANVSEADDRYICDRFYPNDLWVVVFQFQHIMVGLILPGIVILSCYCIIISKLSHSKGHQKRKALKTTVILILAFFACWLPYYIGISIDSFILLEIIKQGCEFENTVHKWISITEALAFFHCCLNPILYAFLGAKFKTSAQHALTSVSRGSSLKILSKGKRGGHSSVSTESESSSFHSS
T1 sequence (P51681 whole entry): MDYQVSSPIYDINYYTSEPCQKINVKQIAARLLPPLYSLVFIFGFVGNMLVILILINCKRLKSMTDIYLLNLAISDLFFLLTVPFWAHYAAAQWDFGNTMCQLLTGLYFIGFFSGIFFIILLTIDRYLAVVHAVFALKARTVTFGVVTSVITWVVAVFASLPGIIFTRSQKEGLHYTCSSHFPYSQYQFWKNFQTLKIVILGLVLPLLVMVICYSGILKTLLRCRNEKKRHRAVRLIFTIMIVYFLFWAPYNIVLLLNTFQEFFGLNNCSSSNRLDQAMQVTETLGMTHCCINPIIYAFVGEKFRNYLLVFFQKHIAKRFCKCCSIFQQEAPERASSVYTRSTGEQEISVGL

H-His-D-Trp-D-Lys-Trp-D-Phe-Lys-NH2 (H-H[dW][dK]W[dF]K-NH2; SMILES NCCCC[C@H](NC(=O)[C@@H](Cc1ccccc1)NC(=O)[C@H](Cc1c[nH]c2ccccc12)NC(=O)[C@@H](CCCCN)NC(=O)[C@@H](Cc1c[nH]c2ccccc12)NC(=O)[C@@H](N)Cc1c[nH]cn1)C(N)=O) [DLG, GHS-R antagonist peptide, obtained from Sigma-Aldrich]
inhibition of SDF-1 induced T cell migration (Primary human T cells): marked dose dependent inhibition | inhibition of calcium release post MIP-1β-CCR5 interaction (CCR5 [1]): dose dependent inhibition of calcium release | body weight ([2]; repeated administration): reduce body weight in obese mice | glycaemic control and insulin resistance ([2]; repeated administration): improve their glycaemic control and insulin resistance | muscle mass [2]: without affecting the muscle mass | size of abdominal fat pads [2]: reduced the size of abdominal fat pads | inhibition of SDF-1 induced migration [3]: inhibited the migration | food intake ([4]; fed state when circulating ghrelin levels are low): does not affect food intake in the fed state | adverse side effects ([4]; in vivo): without any adverse side effects | effect on MIP-3β mediated calcium flux (CCR7): did not affect | inhibition of SDF-1-induced calcium flux (CXCR4 [5]; primary human T cells, SDF-1 100 ng/ml, DLG at various concentrations): markedly inhibited in a dose dependent fashion | calcium flux by the substance alone (CXCR4 [5]; unstimulated primary human T cells): did not flux calcium by itself | effect on SDF-1 induced ERK/P42 phosphorylation (SW1008 astrocytoma cells): abrogated the SDF-1 induced signaling | effect on SDF-1 induced ERK/P42 phosphorylation (U118 astrocytoma cells): abrogated the SDF-1 induced signaling | HIV infectivity (GFP fluorescence intensity) compared to untreated cells (HIV1 (CXCR4, S1 strain)): substantial reduction in HIV infectivity | effect on sphingosine 1 phosphate mediated calcium flux (EDG receptor): did not affect

c1cc(CN2CCCNCCNCCCNCC2)ccc1CN1CCCNCCNCCCNCC1 [AMD3100]
metastasis of breast and pancreatic carcinoma [6]: blocks | glioma cell invasion (glioma cell): blocks glioma cell invasion | CXCR4 mediated HIV viral entry (HIV): successfully utilized to block CXCR4 mediated HIV viral entry | intracranial growth of primary brain tumors (primary brain tumors): effectively inhibit intracranial growth of primary brain tumors | allergy and collagen induced arthritis [7]: decreases allergy and collagen induced arthritis

B1: D-[Lys3]GHRP-6 (H-His-D-Trp-D-Lys-Trp-D-Phe-Lys-NH2) (peptide)
peptide: H-H[dW][dK]W[dF]K-NH2
SMILES: NCCCC[C@H](NC(=O)[C@@H](Cc1ccccc1)NC(=O)[C@H](Cc1c[nH]c2ccccc12)NC(=O)[C@@H](CCCCN)NC(=O)[C@@H](Cc1c[nH]c2ccccc12)NC(=O)[C@@H](N)Cc1c[nH]cn1)C(N)=O
percent reduction of maximal binding (CCR5 [8]): 50 to 60% | percent reduction of maximal binding (CXCR4 [9]): 50 to 60%
